Results: patent US11746103B2, “ALK-5 inhibitors and uses thereof” (Sumitomo Pharma Oncology, Inc., priority 2020, dated 2023)
Like-named read-outs stand apart in the source and are kept apart here.

What was measured:
[1] = test system: TGF-beta induced SMAD signaling; test: RDSR (RD SMAD reporter) Cellular Reporter Assay; format: cell-based; conditions: Homo sapiens
Source text: TGF-β signaling is triggered when the activated TGF-β homodimer binds to the TGF-β receptor 2, which in turn leads to the recruitment and phosphorylation of TGF-β receptor 1 (ALK5). Activated TGF-β receptor 1 phosphorylates the signal transduction molecules SMAD2 and SMAD3. These bind to common mediator SMAD4 and translocate to the nucleus where they bind to short conserved DNA sequences called the SMAD binding element and induce the transcription of various target genes. […] Certain example compounds were also or alternatively assayed using the RDSR Cellular Reporter Assay. Overview and Design: The RD SMAD reporter (RDSR) cell line was generated by stabily integrating the SMAD cellular reporter plasmid (Promega, pGL4.48[luc2P/SBE/Hygro]) into the human rhabdomyosarcoma cell line RD (ATCC, CCL-136). Once SMAD signaling is triggered, with, for example, the addition of TGF-β 1, receptor activated SMADs bind the SMAD binding elements (SBEs) leading to the expression of intracellular luciferase. To determine the potency of compounds at inhibiting TGF-beta induced SMAD signaling, the RDSR reporter system was utilized. The rhabdomyosarcoma line RD (ATCC, CCL-136) was transfected with a SMAD reporter vector (Promega, E3671) and a polyclonal stable cell line was selected using hygromycin B. The transfected vector contains three copies of a SMAD-binding element (SBE) that drive transcription of the luciferase reporter gene luc2P (Photinus pyralis). luc2P is a synthetically-derived luciferase sequence with humanized codon optimization that is designed for high expression and reduced anomalous transcription. The luc2P gene contains hPEST, a protein destabilization sequence, which allows luc2P protein levels to respond more quickly than those of luc2 to induction of transcription. The intracellular luciferase is quantified by the addition of equal volume (100 μl) of ONE-GLO substrate (Promega, E6120) and read within ten minutes on the Envision plate reader. The stable RDSR cell line was tested by evaluating the response to human TGF-β1 (R&D Systems, 7754-BH-005) as well as human myostatin (R&D Systems, 788-G8-010/CF) in a concentration dependent manner after twenty-four hours of stimulation. […] For compound evaluation, the tool drugs Galunisertib and Vactosertib were included as positive controls. The tool drugs and the compounds of the invention being tested were all incubated with cells for one hour at 37° C. before stimulation with 200 pg/ml rhTGF-beta1 for twenty-four hours. The activity of the reporter was determined with the addition of ONE-GLO (Promega) substrate and luminescence counts collected on the Envision plate reader (Perkin Elmer). […] The activity of compounds of the invention as determined using this method are reported in the third column of Table 1, below.

ALK-5 = ALK-5 (Homo sapiens (Human), UniProt P36897); test: LanthaScreen Eu Kinase Binding Assay, ALK-5; conditions: for IC50: read-out: Kinase Inhibition: ALK5 IC50
Procedure: Activity determinations and selectivity were conducted by Thermo Fisher Scientific “SelectScreen™ Biochemical Kinase Profiling Service” using their “LanthaScreen™ Eu Kinase Binding Assay Screening” (www.thermofisher.com/selectscreen). Binding of an Alexa Fluor™ conjugate or “tracer” to a kinase is detected by addition of a Eu-labeled anti-tag antibody. Binding of the tracer and antibody to a kinase results in a high degree of FRET, whereas displacement of the tracer with a kinase inhibitor results in a loss of FRET. This assay is carried out by mixing the compound tested with the reagents and reading, no development step is required. Life Technologies' Kinase Tracers are based on ATP-competitive kinase inhibitors, making them suitable for detection of any compounds that bind to the ATP site. Inhibitors that bind the ATP site include both Type I kinase inhibitors, which bind solely to the ATP site, and Type II inhibitors (e.g., Gleevec®/Imatinib, Sorafenib, BIRB-796), which bind to both the ATP site and a second site often referred to as the allosteric site. […] For 10 point titrations, 3-fold serial dilutions are conducted from the starting concentration (see Table 2 below). [table] All Kinase/Antibody Mixtures are diluted to a 2× working concentration in the specified kinase buffer. The 4× AlexaFluor labeled Tracer is prepared in Kinase Buffer. Bar-coded, low volume, white 384-well plate (Greiner Cat. #784207) […] 2. 3.84 μL—Kinase Buffer […] 4. 4.0 μL—4× Tracer 5. 30-second plate shake 6. 60-minute incubation at room temperature 7. […] The LanthaScreen Eu Kinase Binding Assay data is analyzed using the equations in Table 3 for each set of data points. [table] Data generated were plotted using the graphing software XLfit from IDBS. The dose response curve is curve fit to model number 205.

[2] = 200 pg/ml rhTGF-beta1, 24 h, read-out: RD-SMAD reporter activity

ALK-5, sequence (P36897 34-503): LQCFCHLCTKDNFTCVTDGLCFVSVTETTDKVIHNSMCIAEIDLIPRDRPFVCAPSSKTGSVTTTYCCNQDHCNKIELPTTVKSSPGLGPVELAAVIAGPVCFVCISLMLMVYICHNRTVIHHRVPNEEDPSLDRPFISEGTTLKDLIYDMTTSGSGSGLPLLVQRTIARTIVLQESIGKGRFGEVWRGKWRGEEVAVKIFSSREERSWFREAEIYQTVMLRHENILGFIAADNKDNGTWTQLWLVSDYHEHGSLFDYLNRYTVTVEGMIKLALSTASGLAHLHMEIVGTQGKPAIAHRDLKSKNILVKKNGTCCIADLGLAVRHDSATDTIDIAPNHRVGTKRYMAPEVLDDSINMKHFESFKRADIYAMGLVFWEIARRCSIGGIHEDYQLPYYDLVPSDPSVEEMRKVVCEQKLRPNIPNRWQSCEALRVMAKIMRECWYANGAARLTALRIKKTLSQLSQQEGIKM

IC50 [1, 2]	Kinase Selectivity: ALK2 IC50/ ALK5 IC50 (ALK-5)	IC50 (ALK-5)	SMILES	IC50 ([1]; 24 h, read-out: RD-SMAD reporter activity (nM))
< 100 nM	(++) (10<ALK2/ALK5<100=[++])	< 0.01 µM	Cc1c(F)ccc2c(Nc3ccnc(Nc4ccc(N5CCN(C)CC5)cc4)n3)cnnc12 [EX-01, N4-(7-fluoro-8-methylcinnolin-4-yl)-N2-(4-(4-methyl-piperazin-1-yl)-phenyl)-pyrimidine-2,4-diamine]	–
< 100 nM	(++) (10<ALK2/ALK5<100=[++])	< 0.01 µM	Cc1c(F)ccc2c(Nc3ccnc(Nc4ccc(N5CCNCC5)cc4)n3)cnnc12 [EX-02, N4-(7-fluoro-8-methylcinnolin-4-yl)-N2-(4-(piperazin-1-yl)phenyl)-pyrimidine-2,4-diamine]	–
100 to 1000 nM	(++) (10<ALK2/ALK5<100=[++])	< 0.01 µM	Cc1cccc2c(Nc3ccnc(Nc4cc(CN5CCNCC5)ccc4F)n3)cnnc12 [EX-03, N2-(2-fluoro-5-(piperazin-1-yl-methyl)phenyl)-N4-(8-methyl-cinnolin-4-yl)-pyrimidine-2,4-diamine]	–
< 100 nM	(+) (≤10=[+])	< 0.01 µM	Cc1cccc2c(Nc3ccnc(Nc4cccc(CN5CCN(C)CC5)c4)n3)cnnc12 [EX-04, N4-(8-methyl-cinnolin-4-yl)-N2-(3-((4-methyl-piperazin-1-yl)methyl)phenyl)pyrimidine-2,4-diamine]	–
100 to 1000 nM	(++) (10<ALK2/ALK5<100=[++])	< 0.01 µM	Cc1cccc2c(Nc3ccnc(Nc4ccc(CC5CCNCC5)cc4)n3)cnnc12 [EX-05, N4-(8-methylcinnolin-4-yl)-N2-(4-(piperidin-4-ylmethyl)pheny)pyrimidine-2,4-diamine]	–
< 100 nM	(+) (≤10=[+])	< 0.01 µM	Cc1cccc2c(Nc3ccnc(Nc4cc(F)cc(CN5CCNCC5)c4)n3)cnnc12 [EX-06, N2-(3-fluoro-5-(piperazin-1-ylmethyl)phenyl)-N4-(8-methyl-cinnolin-4-yl)pyrimidine-2,4-diamine]	–
< 100 nM	(++) (10<ALK2/ALK5<100=[++])	< 0.01 µM	Cc1cc(F)cc2c(Nc3ccnc(Nc4ccc(N5CCN(C)CC5)cc4)n3)cnnc12 [EX-07, N4-(6-fluoro-8-methylcinnolin-4-yl)-N2-(4-(4-methylpiperazin-1-yl)phenyl)pyrimidine-2,4-diamine]	–
100 to 1000 nM	(+) (≤10=[+])	0.01 to 0.1 µM	Cc1cccc2c(Nc3nc(Nc4ccc(N5CCNCC5)cc4)ncc3F)cnnc12 [EX-09, 5-fluoro-N4-(8-methyl-cinnolin-4-yl)-N2-(4-(piperazin-1-yl)phenyl)pyrimidine-2,4-diamine]	–
< 100 nM	(++) (10<ALK2/ALK5<100=[++])	< 0.01 µM	Cc1cc(F)cc2c(Nc3ccnc(Nc4ccc(N5CCNCC5)cc4)n3)cnnc12 [EX-15, N4-(6-fluoro-8-methyl-cinnolin-4-yl)-N2-(4-(piperazin-1-yl)phenyl)-pyrimidine-2,4-diamine]	–
100 to 1000 nM	(++) (10<ALK2/ALK5<100=[++])	0.01 to 0.1 µM	Cc1cccc2c(Nc3ccnc(Nc4cc(CC5CCNCC5)ccc4F)n3)cnnc12 [EX-16, N2-(2-fluoro-5-(piperidin-4-ylmethyl)-phenyl)-N4-(8-methyl-cinnolin-4-yl)-pyrimidine-2,4-diamine]	–
< 100 nM	(++) (10<ALK2/ALK5<100=[++])	< 0.01 µM	Cc1cccc2c(Nc3ccnc(Nc4ccc(N5CCN(CC(F)(F)F)CC5)cc4)n3)cnnc12 [EX-17, N4-(8-methyl-cinnolin-4-yl)-N2-(4-(4-(2,2,2-trifluoroethyl)-piperazin-1-yl)phenyl)-pyrimidine-2,4-diamine]	–
< 100 nM	(++) (10<ALK2/ALK5<100=[++])	< 0.01 µM	Cc1cccc2c(Nc3ccnc(Nc4ccc(CN5CCNCC5)cc4)n3)cnnc12 [EX-20, N4-(8-methyl-cinnolin-4-yl)-N2-(4-(piperazin-1-yl-methyl)phenyl)pyrimidine-2,4-diamine]	–
100 to 1000 nM	(++) (10<ALK2/ALK5<100=[++])	0.01 to 0.1 µM	Cc1cccc2c(Nc3ccnc(Nc4ccc(N5CCN(C)CC5)cc4F)n3)cnnc12 [EX-21, N2-(2-fluoro-4-(4-methyl-piperazin-1-yl)phenyl)-N4-(8-methyl-cinnolin-4-yl)-pyrimidine-2,4-diamine]	–
< 100 nM	(+++) (100≤ALK2/ALK5=[+++])	< 0.01 µM	Cc1cccc2c(Nc3ccnc(Nc4ccc(N5CCNCC5)cc4F)n3)cnnc12 [EX-22, N2-(2-fluoro-4-(piperazin-1-yl)phenyl)-N4-(8-methylcinnolin-4-yl)pyrimidine-2,4-diamine]	–
< 100 nM	(++) (10<ALK2/ALK5<100=[++])	< 0.01 µM	Cc1cccc2c(Nc3ccnc(Nc4ccc(N5CCN(C)CC5)nc4)n3)cnnc12 [EX-23, N4-(8-methylcinnolin-4-yl)-N2-(6-(4-methylpiperazin-1-yl)pyridin-3-yl)pyrimidine-2,4-diamine]	–
< 100 nM	(++) (10<ALK2/ALK5<100=[++])	< 0.01 µM	Cc1ccc(F)c2c(Nc3ccnc(Nc4ccc(N5CCN(C)CC5)cc4)n3)cnnc12 [EX-24, N4-(5-fluoro-8-methylcinnolin-4-yl)-N2-(4-(4-methylpiperazin-1-yl)phenyl)pyrimidine-2,4-diamine]	–
< 100 nM	(++) (10<ALK2/ALK5<100=[++])	< 0.01 µM	Cc1cccc2c(Nc3ccnc(Nc4ccc(CN5CCOCC5)cc4)n3)cnnc12 [EX-25, N4-(8-methylcinnolin-4-yl)-N2-(4-(morpholinomethyl)phenyl)pyrimidine-2,4-diamine]	–
< 100 nM	(++) (10<ALK2/ALK5<100=[++])	< 0.01 µM	Cc1cccc2c(Nc3ccnc(Nc4ccc(CN5CCN(C)CC5)cc4)n3)cnnc12 [EX-26, N4-(8-methylcinnolin-4-yl)-N2-(4-((4-methylpiperazin-1-yl)methyl)phenyl)pyrimidine-2,4-diamine]	–

SMILES	IC50 [1, 2]	Kinase Selectivity: ALK2 IC50/ ALK5 IC50 (ALK-5)	IC50 (ALK-5)	IC50 ([1]; 24 h, read-out: RD-SMAD reporter activity (nM))
Cc1cccc2c(Nc3ccnc(Nc4ccc(N5CCNCC5)c(F)c4)n3)cnnc12 [EX-08, N2-(3-fluoro-4-(piperazin-1-yl)phenyl)-N4-(8-methylcinnolin-4-yl)pyrimidine-2,4-diamine]	–	(++) (10<ALK2/ALK5<100=[++])	< 0.01 µM	< 100 nM
Cc1cccc2c(Nc3ccnc(Nc4ccc(N5CC6CCC(C5)N6C)cc4)n3)cnnc12 [EX-27, N2-(4-(8-methyl-3,8-diazabicyclo[3.2.1]octan-3-yl)phenyl)-N4-(8-methylcinnolin-4-yl)pyrimidine-2,4-diamine]	< 100 nM	(++) (10<ALK2/ALK5<100=[++])	< 0.01 µM	–
